ChEMBL document CHEMBL1133811, “Small molecule/nucleic acid affinity chromatography: application for the identification of telomerase inhibitors which target its key RNA/DNA heteroduplex” (Bioorg Med Chem Lett, 2001)
Numbered stars: 1 amine (or outer) side, 2 acyl side, 3 side chain; on linkers, the order of the positions; unused ones are H or OH. Bridge positions count the residues as written; N and C are the ends. Square brackets hold non-standard residues; d marks the D form. Peptide text beside a SMILES is read from it. I, II: the chains in the order shown. Actinocin(9to1) = Cc1c2oc3c(C)ccc(C(=O)[*:1])c3nc-2c(C(=O)[*:2])c(N)c1=O; NMeV = CN[C@H](C(=O)O)C(C)C; Sar = CNCC(=O)O

How the values were obtained:
[1] = target: T1, Telomerase reverse transcriptase (Homo sapiens, UniProt O14746); assay: Inhibitory activity against telomerase at 50 uM concentration (Compound released from DNA/DNA heteroduplex derivatized resin [sequence (TTAGGG)3)
[2] = target: T1, Telomerase reverse transcriptase; assay: Inhibitory activity against telomerase at 50 uM concentration (Compound released from RNA/DNA heteroduplex derivatized resin [sequence (TTAGGG)3)
[3] = target: T1, Telomerase reverse transcriptase; assay: Inhibitory activity against telomerase at 50 uM concentration (Compound released from underivatized resin
[4] = target: T1, Telomerase reverse transcriptase; assay: Inhibitory activity against telomerase (Compound released from underivatized resin
[5] = target: T1, Telomerase reverse transcriptase; assay: Inhibitory activity against telomerase (Compound released from DNA/DNA heteroduplex derivatized resin [sequence (TTAGGG)3)
[6] = target: T1, Telomerase reverse transcriptase; assay: Inhibitory activity against telomerase (Compound released from RNA/DNA heteroduplex derivatized resin [sequence (TTAGGG)3)

T1 sequence (O14746 whole entry): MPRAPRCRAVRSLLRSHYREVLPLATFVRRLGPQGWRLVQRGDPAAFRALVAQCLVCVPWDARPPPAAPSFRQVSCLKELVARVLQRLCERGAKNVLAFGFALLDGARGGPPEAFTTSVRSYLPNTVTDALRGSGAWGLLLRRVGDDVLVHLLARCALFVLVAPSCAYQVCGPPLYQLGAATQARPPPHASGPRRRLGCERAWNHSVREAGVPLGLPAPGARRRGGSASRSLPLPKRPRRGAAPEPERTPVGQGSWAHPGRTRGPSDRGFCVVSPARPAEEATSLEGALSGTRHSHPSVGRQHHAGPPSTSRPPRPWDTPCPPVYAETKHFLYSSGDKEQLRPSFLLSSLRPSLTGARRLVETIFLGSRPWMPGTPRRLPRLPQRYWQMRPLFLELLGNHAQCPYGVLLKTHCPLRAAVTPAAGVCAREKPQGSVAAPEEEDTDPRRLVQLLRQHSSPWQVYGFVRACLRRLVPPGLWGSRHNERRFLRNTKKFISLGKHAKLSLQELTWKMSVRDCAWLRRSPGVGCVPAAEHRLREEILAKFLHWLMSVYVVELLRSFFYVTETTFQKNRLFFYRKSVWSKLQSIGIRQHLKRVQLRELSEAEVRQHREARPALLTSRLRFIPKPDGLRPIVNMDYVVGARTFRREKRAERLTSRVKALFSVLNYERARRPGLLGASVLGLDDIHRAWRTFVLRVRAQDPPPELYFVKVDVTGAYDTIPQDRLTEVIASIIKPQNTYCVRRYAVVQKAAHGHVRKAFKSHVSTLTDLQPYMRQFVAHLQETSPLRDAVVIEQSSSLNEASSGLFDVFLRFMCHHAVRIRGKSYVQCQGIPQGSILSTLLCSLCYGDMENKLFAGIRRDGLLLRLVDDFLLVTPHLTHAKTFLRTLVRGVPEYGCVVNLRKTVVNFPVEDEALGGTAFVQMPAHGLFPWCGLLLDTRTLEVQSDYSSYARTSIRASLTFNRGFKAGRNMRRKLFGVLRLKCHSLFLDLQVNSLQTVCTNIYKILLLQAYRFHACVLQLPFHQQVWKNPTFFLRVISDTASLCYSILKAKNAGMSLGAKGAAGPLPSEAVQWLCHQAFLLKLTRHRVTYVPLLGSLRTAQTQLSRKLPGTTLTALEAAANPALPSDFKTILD

| inhibition [1] [%] | inhibition [2] [%] | inhibition [3] [%] | IC50 [4] [µM] | IC50 [5] [µM] | IC50 [6] [µM] | Compound |
| --- | --- | --- | --- | --- | --- | --- |
|  |  |  | 8.2 | 8.2 | 8.2 | CCOc1ccc2nc3cc(N)ccc3c(N)c2c1 [ETHACRIDINE] |
|  |  |  | 12.2 | 12.2 | 12.2 | CN(C)c1ccc2cc3ccc(N(C)C)cc3nc2c1 [ACRIDINE ORANGE] |
| < 50 | < 50 | < 50 |  |  |  | COc1cccc2c1C(=O)c1c(O)c3c(c(O)c1C2=O)C[C@@](O)(C(C)=O)C[C@@H]3O[C@H]1C[C@H](N)[C@H](O)[C@H](C)O1 |
|  |  |  | 21.7 | 21.7 | 21.7 | Cc1cc2cc3cc(C)c(N)cc3nc2cc1N |
| < 50 | < 50 | < 50 |  |  |  | Cc1c2oc3c(C)ccc(C(=O)N[C@@H]4C(=O)N[C@H](C(C)C)C(=O)N5CCC[C@H]5C(=O)N(C)CC(=O)N(C)[C@@H](C(C)C)C(=O)O[C@@H]4C)c3nc-2c(C(=O)N[C@@H]2C(=O)N[C@H](C(C)C)C(=O)N3CCC[C@H]3C(=O)N(C)CC(=O)N(C)[C@@H](C(C)C)C(=O)O[C@@H]2C)c(N)c1=O (I: T[dV]P[Sar][NMeV] / II: T[dV]P[Sar][NMeV]; ester I:1-I:C, II:1-II:C; linker I:N-II:N via Actinocin(9to1)) |
| < 50 | < 50 | < 50 |  |  |  | COc1cccc2c1C(=O)c1c(O)c3c(c(O)c1C2=O)C[C@@](O)(C(=O)CO)C[C@@H]3O[C@H]1C[C@H](N)[C@H](O)[C@H](C)O1 |

| Compound | inhibition [1] [%] | inhibition [2] [%] | inhibition [3] [%] | IC50 [4] [µM] | IC50 [5] [µM] | IC50 [6] [µM] |
| --- | --- | --- | --- | --- | --- | --- |
| Cc1c2oc3c(C)c(N)cc(C(=O)N[C@@H]4C(=O)N[C@H](C(C)C)C(=O)N5CCC[C@H]5C(=O)N(C)CC(=O)N(C)[C@@H](C(C)C)C(=O)O[C@@H]4C)c3nc-2c(C(=O)N[C@@H]2C(=O)N[C@H](C(C)C)C(=O)N3CCC[C@H]3C(=O)N(C)CC(=O)N(C)[C@@H](C(C)C)C(=O)O[C@@H]2C)c(N)c1=O | < 50 | < 50 | < 50 |  |  |  |
| CC[n+]1c(-c2ccccc2)c2cc(N)ccc2c2ccc(N)cc21 [HOMIDIUM BROMIDE] |  |  |  | 3.3 | 3.3 | 3.3 |
